# Laboratory results: patent publication US8663651B2, “T-140 peptide analogs having CXCR4 super-agonist activity for immunomodulation” (Biokine Therapeutics Ltd., priority 2006, dated 2014)
# Square brackets hold non-standard residues; d marks the D form. * marks the point of attachment. Benzoyl(4-F) = O=C(c1ccc(F)cc1)*; Cit = NC(=O)NCCC[C@H](N)C(=O)O
# Key:
# Type in all cases: cell-based, human
# PC3-CXCR4.5 cells = assay: MIP3α secretion by PC3-CXCR4.5 cells (CXCR4-overexpressing clone), assessed by ELISA; conditions: for induced MIP3α secretion after silencing of CXCR4 expression: CXCL12 500 ng/ml or 4F-benzoyl-TN14003 8 μM for additional 48 hours
# Method: (§1) In this example, regulation of the chemokine MIP3α (macrophage inflammatory protein 3α) was examined. […] In FIG. 1B, PC3 (left panel) and PC3-CXCR4.5 (right panel) cells were stimulated with the indicated concentrations of CXCL12 for 48 hours and MIP3α secretion was assessed by ELISA. The results represent the average of triplicates±STDEV.
# (§2) The effects of the CXCR4 antagonist AMD3100 and of 4F-benzoyl-TN14003 (4FB-TN14003), hitherto known as a CXCR4 antagonist, on MIP3α secretion were further tested. […] In FIG. 1C, CXCR4 signaling in PC3 (left panel) and PC3-CXCR4.5 (right panel) cells was inhibited with anti-CXCL12 antibodies (αCXCL12) and Pertussis toxin (PTX) treatments alone or in combination with CXCL12, as indicated. Secretion of MIP3α was assessed by ELISA. The results represent the average of triplicates±STDEV.
# (§3) The Dicer-substrate siRNA duplexes of CXCR4 (NCBI accession number NM 003467): sense 5′-[…]-3′ (SEQ ID NO:78), antisense 5′ […]-3′ (SEQ ID NO:79) were purchased from IDT, Coralville, Iowa. The non-specific siRNA duplexes were used as a control. PC3-CXCR4.5 cells were transfected with 200 nmol/L siRNA in serum-free medium using Oligofectamine reagent (Invitrogen, Carlsbad, Calif., USA), according to the manufacturer's instructions. To determine the efficiency of CXCR4RNA interference, at 48 hours post-transfection, the cells were analyzed for CXCR4 expression on mRNA and cell-surface levels.
# In FIG. 2C, control (gray) and CXCR4 (black) siRNA-transfected PC3-CXCR4.5 cells at 48 hours post-transfection were incubated with CXCL12 500 ng/ml and 4F-benzoyl-TN14003 8 μM (4FB-TN14003) for additional 48 hours. MIP3α secretion was assessed by ELISA. The results represent the average of triplicates±STDEV.
# CXCR4 = CXCR4 silencing by siRNA in PC3-CXCR4.5 cells (RT-PCR and FACS); conditions: 200 nmol/L siRNA, 48 hours post-transfection
# Method: as §3
# In FIG. 2A, PC3-CXCR4.5 cells 48 hours following the transfection with CXCR4-specific siRNA were stained for the control and CXCR4 antibodies and evaluated by FACS. Left panel, non-transfected cells; middle panel, cells transfected with a control (non-specific) siRNA; right panel, cells transfected with a siRNA directed to CXCR4 (CXCR4 siRNA). Cells were stained for the control (IgG2a-PE, full histograms) and CXCR4 antibodies (IgG2a-12G5, empty histograms).
# In FIG. 2B, RT-PCR analysis of CXCR4 of the siRNA-transfected PC3-CXCR4.5 cells 48 hours following the transfection is presented. […] Gene expression was determined using primers specific to CXCR4, or to the housekeeping gene β-actin as a control. […]
# normal keratinocytes = assay: MIP3α secretion by normal keratinocytes, ELISA; conditions: following stimulation
# Method: (§4) The expression of MIP3α in a range of carcinoma cell lines and normal epithelial cells was tested by ELISA. […] Bone marrow endothelial cells, BMEC, glioblastoma cells U87, breast carcinoma cells MDA231, also were negative for MIP3α secretion. […] In addition, MIP3α was also secreted by normal keratinocytes (FIG. 4D) and primary blasts from peripheral blood of patients with AML (FIG. 4C). In FIG. 4, acute promyelocytic leukemia cell lines NB4 (FIG. 4A) and HL60 (FIG. 4B), primary peripheral blasts from the patient with acute myelocytic leukemia (FIG. 4C) and normal keratinocytes (FIG. 4D) were stimulated with the indicated concentration of CXCL12 for 48 hours. The secretion of MIP3α was assayed by ELISA. The results of experiments with NB4, HL60 and keratinocytes represent the average of triplicates±STDEV. […] Secretion of MIP3α was assessed by ELISA. […] The results represent the average of triplicates±STDEV.
# HL-60 = assay: MIP3α secretion by HL-60 cells, ELISA; conditions: following stimulation
# Method: as §4
# PC3 cells = assay: MIP3α secretion by PC3 cells, assessed by ELISA
# Method: as §1, §2
# NB4 = assay: MIP3α secretion by NB4 cells, ELISA; conditions: following stimulation
# Method: as §4
# [1] = CXCR4 siRNA-transfected PC3-CXCR4.5 cells
compound,measurement,setting,value
"c1cc(CN2CCCNCCNCCCNCC2)ccc1CN1CCCNCCNCCCNCC1 [AMD3100, reference compound]",induction of MIP3α secretion in an agonist manner,PC3-CXCR4.5 cells; PC3-CXCR4.5 cells,but not AMD3100 induced
"siRNA specific for CXCR4: Dicer-substrate siRNA duplexes of CXCR4 (SEQ ID NO:78 sense, SEQ ID NO:79 antisense), purchased from IDT (sense UAAAAUCUUCCUGCCCACCAUCUAC; antisense GUAGAUGGUGGGCAGGAAGAUUUUAUU; Dicer-substrate duplex, purchased, chemistry not given here) [reference compound]",CXCR4 mRNA and cell surface expression,CXCR4,reduced CXCR4 mRNA and cell surface expression
same,spontaneous MIP3α secretion after silencing of CXCR4 expression,PC3-CXCR4.5 cells; [1],inhibited the spontaneous
4F-benzoyl-Arg-Arg-Nal-Cys-Tyr-Cit-Lys-DLys-Pro-Tyr-Arg-Cit-Cys-Arg-NH2 ({Benzoyl(4-F)}-RR[Nal]CY[Cit]K[dK]PYR[Cit]CR-NH2; cysteine pairing not given here) [4F-benzoyl-TN14003],MIP3α secretion,normal keratinocytes,increased
same,MIP3α secretion,HL-60,increased
same,induction of MIP3α secretion in an agonist manner,PC3 cells; PC3 cells,induced in both cell lines MIP3α secretion in an agonist manner
same,MIP3α secretion,NB4,increased
same,induced MIP3α secretion after silencing of CXCR4 expression,PC3-CXCR4.5 cells; [1],inhibited
same,induction of MIP3α secretion in an agonist manner,PC3-CXCR4.5 cells; PC3-CXCR4.5 cells,induced in both cell lines MIP3α secretion in an agonist manner
same,mode of action on CXCR4,PC3-CXCR4.5 cells; concluded from CXCR4-dependent MIP3α secretion in PC3-CXCR4.5 cells,super agonist for CXCR4
Pertussis toxin [reference compound],MIP3α secretion,"PC3 cells; PC3 cells, treatment alone or in combination with CXCL12",effectively inhibited the secretion of MIP3α
same,MIP3α secretion,"PC3-CXCR4.5 cells; PC3-CXCR4.5 cells, in combination with CXCL12",did not demonstrate an inhibitory effect on the level of MIP3α
same,MIP3α secretion,"PC3-CXCR4.5 cells; PC3-CXCR4.5 cells, treatment alone",secretion of MIP3α was decreased
"CXCL12: chemokine, CXCR4's only natural ligand",MIP3α secretion,normal keratinocytes,increased
same,MIP3α secretion,HL-60,increased
same,MIP3α secretion,PC3 cells; PC3 cells stimulated with increasing doses of CXCL12 for 48 hours,increased the secretion of MIP3α
same,MIP3α secretion,NB4,increased
same,extent of MIP3α secretion induction compared with 4F-benzoyl-TN14003,PC3-CXCR4.5 cells; CXCR4-expressing cell lines (general statement),to a lesser extent than 4F-benzoyl-TN14003
same,induced MIP3α secretion after silencing of CXCR4 expression,PC3-CXCR4.5 cells; [1],inhibited
same,MIP3α secretion,PC3-CXCR4.5 cells; PC3-CXCR4.5 cells stimulated with increasing doses of CXCL12 for 48 hours,increased the secretion of MIP3α
